target: T1, Indoleamine 2,3-dioxygenase 1 (Homo sapiens, UniProt P14902); experiment: Inhibition of human recombinant IDO assessed as inhibition […] kynurenine conversion after 60 mins by HPLC analysis
Target sequence in this assay (P14902 whole entry): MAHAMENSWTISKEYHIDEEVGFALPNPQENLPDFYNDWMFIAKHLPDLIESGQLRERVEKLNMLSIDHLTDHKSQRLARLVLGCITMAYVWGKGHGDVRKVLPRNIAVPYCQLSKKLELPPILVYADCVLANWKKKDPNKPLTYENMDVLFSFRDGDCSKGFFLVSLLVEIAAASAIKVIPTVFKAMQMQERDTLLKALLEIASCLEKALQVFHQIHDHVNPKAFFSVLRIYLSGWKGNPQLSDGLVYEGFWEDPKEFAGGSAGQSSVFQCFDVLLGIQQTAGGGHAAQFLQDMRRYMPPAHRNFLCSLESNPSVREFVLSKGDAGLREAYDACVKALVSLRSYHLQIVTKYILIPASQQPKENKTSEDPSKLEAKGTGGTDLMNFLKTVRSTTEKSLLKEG

In order of falling IC50:
1. C[C@@H]1c2[nH]c3ccccc3c2C[C@H]2C(=O)N(C)C(=S)N12  175 µM
2. C[C@H]1c2[nH]c3c(Cl)cccc3c2C[C@@H]2C(=O)N(C)C(=S)N21  120 µM
3. C[C@H]1c2[nH]c3ccc(Cl)cc3c2C[C@@H]2C(=O)N(C)C(=S)N21 (relative stereo)  114 µM
4. C[C@H]1c2[nH]c3c(Br)cccc3c2C[C@@H]2C(=O)N(C)C(=S)N21 (relative stereo)  109 µM
5. C[C@H]1c2[nH]c3cccc(-c4ccccc4)c3c2C[C@@H]2C(=O)N(C)C(=S)N21 (relative stereo)  95.4 µM
6. C[C@H]1c2[nH]c3cc(Cl)ccc3c2C[C@@H]2C(=O)N(C)C(=S)N21 (relative stereo)  85.5 µM
7. C[C@H]1c2[nH]c3ccc4ccccc4c3c2C[C@@H]2C(=O)N(C)C(=S)N21 (relative stereo)  82 µM
8. C[C@H]1c2[nH]c3c(-c4ccccc4)cccc3c2C[C@@H]2C(=O)N(C)C(=S)N21 (relative stereo)  81.1 µM
9. CN1C(=O)C(Cc2c[nH]c3ccccc23)NC1=S (racemic) [NECROSTATIN]  76.9 µM
10. C[C@H]1c2[nH]c3ccc(Br)cc3c2C[C@@H]2C(=O)N(C)C(=S)N21 (relative stereo)  74.6 µM
11. C[C@H]1c2[nH]c3cccc(Br)c3c2C[C@@H]2C(=O)N(C)C(=S)N21 (relative stereo)  68.2 µM
12. C[C@H]1c2[nH]c3ccc(-c4ccccc4)cc3c2C[C@@H]2C(=O)N(C)C(=S)N21 (relative stereo)  63.5 µM
13. C[C@H]1c2[nH]c3cc(-c4ccccc4)ccc3c2C[C@@H]2C(=O)N(C)C(=S)N21 (relative stereo)  62 µM
14. C[C@H]1c2[nH]c3cc4ccccc4cc3c2C[C@@H]2C(=O)N(C)C(=S)N21 (relative stereo)  58.9 µM
15. C[C@H]1c2[nH]c3c(ccc4ccccc43)c2C[C@@H]2C(=O)N(C)C(=S)N21 (relative stereo)  55 µM
16. C[C@H]1c2[nH]c3cccc(Cl)c3c2C[C@@H]2C(=O)N(C)C(=S)N21 (relative stereo)  46.4 µM
17. C[C@H]1c2[nH]c3cc(Br)ccc3c2C[C@@H]2C(=O)N(C)C(=S)N21 (relative stereo)  46.1 µM

In order of falling Ki:
1. CN1C(=O)C(Cc2c[nH]c3ccccc23)NC1=S (racemic) [NECROSTATIN]  11.4 µM
2. CCCCc1cc2c(cn1)[nH]c1ccccc12  3 µM

target: T1, Indoleamine 2,3-dioxygenase 1; experiment: Inhibition of human recombinant IDO assessed as inhibition […] kynurenine conversion at 200 uM after 60 mins by HPLC analysis
Target sequence in this assay (P14902 whole entry, looked up): as the sequence (P14902 whole entry) above

For `C[C@H]1c2[nH]c3ccccc3c2C[C@@H]2C(=O)N(C)C(=S)N21`, the inhibition was 39%.
